{
  "source": "patent US5386011A",
  "about": "“Hexapeptide anaphylatoxin-receptor ligands” (priority 1990, dated 1995)",
  "biological_target": "T1, C5a Receptor (Homo sapiens, UniProt P21730)",
  "T1 construct": "2.5-25 ug/mL of purified PMNL membrane fragments; endogenous in cells; host or cells: PMNL (polymorphonuclear leukocytes), purified membrane fragments",
  "T1 sequence (P21730 1-350)": "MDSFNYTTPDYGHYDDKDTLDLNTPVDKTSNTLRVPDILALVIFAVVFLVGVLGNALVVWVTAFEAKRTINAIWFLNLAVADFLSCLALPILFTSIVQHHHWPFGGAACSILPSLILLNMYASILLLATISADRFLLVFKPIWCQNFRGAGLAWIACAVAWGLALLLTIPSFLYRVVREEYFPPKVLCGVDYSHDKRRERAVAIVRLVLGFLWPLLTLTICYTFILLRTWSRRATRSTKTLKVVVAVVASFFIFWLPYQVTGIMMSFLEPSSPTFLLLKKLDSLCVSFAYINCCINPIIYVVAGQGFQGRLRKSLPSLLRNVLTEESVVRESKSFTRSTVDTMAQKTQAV",
  "assay": "Anaphylatoxin receptor binding Ki determination: inhibition of 125I-C5a binding to purified PMNL membrane fragments",
  "details": "0.03-1 nM 125I-C5a, 2.5-25 ug/mL purified PMNL membrane fragments, filtration; read-out: Ki (In vitro C5a Receptor Binding Potency)",
  "description": "Specific inhibition of C5a binding activity of representative compounds of the present invention was measured using 0.03-1 nM ^125 I-C5a with 2.5-25 ug/mL of purified PMNL membrane fragments (Borregaard, N.; Heiple, J. M.; Simons, E. R.; and Clark, R. A. J. Cell. Biol. 1983, 97, 52-61.). Free and membrane-bound ligand were separated by filtration.",
  "note": "Counter-ions that a name gives are not always drawn. Where a SMILES comes first, the peptide text is derived from it. [ ]: non-standard residue; d: D form. The star is where a group is joined. Phe(4-I) = N[C@@H](Cc1ccc(I)cc1)C(=O)O; d1Nal = N[C@H](Cc1cccc2ccccc12)C(=O)O; NMeF = CN[C@@H](Cc1ccccc1)C(=O)O; Cha = N[C@@H](CC1CCCCC1)C(=O)O; dCha = N[C@H](CC1CCCCC1)C(=O)O; dPhg = N[C@@H](C(=O)O)c1ccccc1; NMe(benzyl) = CN(Cc1ccccc1)*; dNle = CCCC[C@@H](N)C(=O)O; Nle = CCCC[C@H](N)C(=O)O; Tfa = O=C(C(F)(F)F)*",
  "data": [
    {"smiles": "CC(C)(C)CC(N)C(=O)N[C@@H](CCCCN)C(=O)N1CCC[C@H]1C(=O)N[C@H](CC1CCCCC1)C(=O)N[C@@H](CC1CCCCC1)C(=O)N[C@H](CCCNC(=N)N)C(=O)O", "note": "(mixture of isomers) [Example 6, H-{(R/S)-t-Butylalanyl}-Lysyl-Prolyl-{(2R)-2-Amino-3-cyclohexylproanoyl}-{(2S)-2-Amino-3-cyclohexylpropanoyl}-DArginyl-OH]", "values": [
      {"measurement": "Ki", "value": 80, "unit": "nM"}
    ]},
    {"smiles": "CN[C@@H](Cc1ccccc1)C(=O)N[C@@H](CCCCN)C(=O)N[C@@H](CCC(=O)O)C(=O)N[C@H](CC1CCCCC1)C(=O)N[C@@H](Cc1ccccc1)C(=O)N[C@H](CCCNC(=N)N)C(=O)O", "note": "[Example 40, (N-Methyl)Phenylalanyl-Lysyl-Glutamyl-{(2R)-2-Amino-3-cyclohexylpropanoyl}-Phenylalanyl-DArginyl-OH] (H-[NMeF]KE[dCha]F[dR]-OH)", "values": [
      {"measurement": "Ki", "value": 100, "unit": "nM"}
    ]},
    {"smiles": "N=C(N)NCCC[C@@H](NC(=O)[C@H](CC1CCCCC1)NC(=O)[C@@H](CC1CCCCC1)NC(=O)[C@H](CCCCN)NC(=O)[C@H](CCCCN)NC(=O)[C@@H](N)Cc1ccccc1)C(=O)O", "note": "[Example 58, H-Phenylalanyl-Lysyl-Lysyl-{(2R)-2-Amino-3-cyclohexylpropanoyl}-{(2S)-2-Amino-3-cyclohexylpropanoyl}-DArginyl-OH] (H-FKK[dCha][Cha][dR]-OH)", "values": [
      {"measurement": "Ki", "value": 11, "unit": "nM"}
    ]},
    {"smiles": "CN[C@@H](Cc1ccccc1)C(=O)N[C@@H](CCCCN)C(=O)N1CCC[C@H]1C(=O)N[C@H](CC1CCCCC1)C(=O)N[C@@H](CC1CCCCC1)C(=O)N[C@H](CCCNC(=N)N)C(=O)N(C)Cc1ccccc1", "note": "[Example 97, (N-Methyl)Phenylalanyl-Lysyl-Prolyl-{(2R) -2-Amino-3-cyclohexylpropanoyl}-{(2S)-2-Amino-3-cyclohexylpropanoyl}-DArginyl-N-(Methyl)(Benzyl)] (H-[NMeF]KP[dCha][Cha][dR]-{NMe(benzyl)})", "values": [
      {"measurement": "Ki", "value": 520, "unit": "nM"}
    ]},
    {"smiles": "CC(C)C[C@H](NC(=O)[C@H](CC1CCCCC1)NC(=O)[C@H](CC1CCCCC1)NC(=O)[C@H](CCCCN)NC(=O)[C@@H](N)Cc1ccc(I)cc1)C(=O)N[C@H](C)C(=O)N[C@@H](CCCNC(=N)N)C(=O)O", "note": "[Example 107, H-(p-Iodo)Phenylalanyl-Lysyl-{(2S)-2-Amino-3-cyclohexylpropanoyl}-{(2S)-2-Amino-3-cyclohexylpropanoyl}-Leucyl-DAlanyl-Arginyl-OH] (H-[Phe(4-I)]K[Cha][Cha]L[dA]R-OH)", "values": [
      {"measurement": "Ki", "value": 3600, "unit": "nM"}
    ]},
    {"smiles": "CC(=O)N[C@@H](Cc1ccccc1)C(=O)N[C@@H](CCCCN)C(=O)N[C@@H](C)C(=O)N[C@H](CC1CCCCC1)C(=O)N[C@@H](CC1CCCCC1)C(=O)N[C@H](CCCNC(=N)N)C(=O)O", "note": "[Example 120, N-Acetyl-Phenylalanyl-Lysyl-Alanyl-{(2R)-2-Amino-3-cyclohexylpropanoyl}-{(2S)-2-Amino-3-cyclohexylpropanoyl}-DArginyl-OH] (Ac-FKA[dCha][Cha][dR]-OH)", "values": [
      {"measurement": "Ki", "value": 110, "unit": "nM"}
    ]},
    {"smiles": "CN[C@@H](Cc1ccccc1)C(=O)N[C@@H](CCCCN)C(=O)N1CCC[C@H]1C(=O)N[C@H](CC1CCCCC1)C(=O)N[C@@H](Cc1ccccc1)C(=O)N[C@H](CCCNC(=N)N)C(=O)O", "note": "[Example 128, (N-Methyl) Phenylalanyl-Lysyl-Prolyl-{(2R)-2-Amino-3-cyclohexylpropanoyl}-Phenylalanyl-DArginyl-OH] (H-[NMeF]KP[dCha]F[dR]-OH)", "values": [
      {"measurement": "Ki", "value": 39, "unit": "nM"}
    ]},
    {"smiles": "CN[C@@H](Cc1ccccc1)C(=O)N[C@@H](CCCCN)C(=O)N[C@@H](C)C(=O)N[C@H](CC1CCCCC1)C(=O)N[C@@H](CC1CCCCC1)C(=O)N[C@H](CCCNC(=N)N)C(=O)O", "note": "[Example 152, (N-Methyl)Phenylalanyl-Lysyl-Alanyl-{(2R)-2-Amino-3-cyclohexylpropanoyl}-{(2S)-2-Amino-3-cyclohexylpropanoyl}-DArginyl-OH] (H-[NMeF]KA[dCha][Cha][dR]-OH)", "values": [
      {"measurement": "Ki", "value": 83, "unit": "nM"}
    ]},
    {"smiles": "CN[C@@H](Cc1ccccc1)C(=O)N[C@@H](CCCCN)C(=O)N1CCC[C@H]1C(=O)N[C@H](CC1CCCCC1)C(=O)N[C@@H](CC1CCCCC1)C(=O)N[C@H](CCCNC(=N)N)C(=O)O", "note": "[Example 166, (N-Methyl)Phenylalanyl-Lysyl-Prolyl-{(2R)-2-Amino-3-cyclohexylpropanoyl}-{(2S)-2-Amino-3-cyclohexylpropanoyl}-DArginyl-OH] (H-[NMeF]KP[dCha][Cha][dR]-OH)", "values": [
      {"measurement": "Ki", "value": 35, "unit": "nM"}
    ]},
    {"smiles": "CCCC[C@H](NC(=O)[C@H](Cc1ccccc1)NC)C(=O)N1CCC[C@H]1C(=O)N[C@H](CC1CCCCC1)C(=O)N[C@@H](CC1CCCCC1)C(=O)N[C@H](CCCNC(=N)N)C(=O)O", "note": "[Example 187, (N-Methyl)Phenylalanyl-Norleucyl-Prolyl-{(2R)-2-Amino-3-cyclohexylpropanoyl}-{(2S)-2-Amino-3-cyclohexylpropanoyl}-DArginyl-OH] (H-[NMeF][Nle]P[dCha][Cha][dR]-OH)", "values": [
      {"measurement": "Ki", "value": 300, "unit": "nM"}
    ]},
    {"smiles": "CC(C)C[C@@H](NC(=O)[C@H](CC1CCCCC1)NC(=O)[C@H](CC1CCCCC1)NC(=O)[C@H](C)NC(=O)[C@H](CCCCN)NC(=O)[C@@H](N)Cc1ccccc1)C(=O)N[C@@H](CCCNC(=N)N)C(=O)O", "note": "[Example 195, H-Phenylalanyl-Lysyl-Alanyl-{(2S)-2-Amino-3-cyclohexylpropanoyl}-{(2S)-2-Amino-3-cyclohexylpropanoyl}-DLeucyl-Arginyl-OH] (H-FKA[Cha][Cha][dL]R-OH)", "values": [
      {"measurement": "Ki", "value": 1500, "unit": "nM"}
    ]},
    {"smiles": "CN[C@@H](Cc1ccccc1)C(=O)N[C@@H](CCCCN)C(=O)N1CCC[C@H]1C(=O)N[C@H](CC1CCCCC1)C(=O)N[C@@H](Cc1ccccc1)C(=O)N[C@H](Cc1ccccc1)C(=O)O", "note": "[Example 212, (N-Methyl)Phenylalanyl-Lysyl-Prolyl-{(2R)-2-Amino-3-cyclohexylpropanoyl}-Phenylalanyl-DPhenylalanyl-OH] (H-[NMeF]KP[dCha]F[dF]-OH)", "values": [
      {"measurement": "Ki", "value": 110, "unit": "nM"}
    ]},
    {"smiles": "CC(C)C[C@H](NC(=O)[C@H](CC1CCCCC1)NC(=O)[C@H](CC1CCCCC1)NC(=O)[C@H](C)NC(=O)[C@H](CCCCN)NC(=O)[C@@H](N)Cc1ccccc1)C(=O)N[C@H](CCCNC(=N)N)C(=O)O", "note": "[Example 214, H-Phenylalanyl-Lysyl-Alanyl-{(2S)-2-Amino-3-cyclohexylpropanoyl}-{(2S)-2-Amino-3-cyclohexylpropanoyl}-Leucyl-DArg] (H-FKA[Cha][Cha]L[dR]-OH)", "values": [
      {"measurement": "Ki", "value": 90, "unit": "nM"}
    ]},
    {"smiles": "CN[C@@H](Cc1ccccc1)C(=O)N[C@@H](CCCCN)C(=O)N1CCC[C@H]1C(=O)N[C@H](Cc1cccc2ccccc12)C(=O)N[C@@H](Cc1ccccc1)C(=O)N[C@H](CCCNC(=N)N)C(=O)O", "note": "[Example 224, (N-Methyl)Phenylalanyl-Lysyl-Prolyl-D(1-Naphthylalanyl)-Phenylalanyl-DArginyl-OH] (H-[NMeF]KP[d1Nal]F[dR]-OH)", "values": [
      {"measurement": "Ki", "value": 12, "unit": "nM"}
    ]},
    {"smiles": "CN[C@@H](Cc1ccccc1)C(=O)N[C@@H](CCCCNC(=O)C(F)(F)F)C(=O)N1CCC[C@H]1C(=O)N[C@H](CC1CCCCC1)C(=O)N[C@@H](CC1CCCCC1)C(=O)N[C@H](CCCNC(=N)N)C(=O)O", "note": "[Example 305, (N-Methyl)Phenylalanyl-Lysyl(N-epsilon-trifluoroacetyl)-Prolyl-{(2R)-2-Amino-3-cyclohexylpropanoyl}-{(2S)-2-Amino-3-cyclohexylpropanoyl}-DArginyl-OH] (H-[NMeF]K(Tfa)P[dCha][Cha][dR]-OH)", "values": [
      {"measurement": "Ki", "value": 220, "unit": "nM"}
    ]},
    {"smiles": "CC(C)[C@H](NC(=O)[C@H](CCCCN)NC(=O)[C@@H](N)Cc1ccccc1)C(=O)N[C@H](CC1CCCCC1)C(=O)N[C@@H](CC1CCCCC1)C(=O)N[C@H](CCCNC(=N)N)C(=O)O", "note": "[Example 360, H-Phenylalanyl-Lysyl-Valyl-{(2R)-2-Amino-3-cyclohexylpropanoyl}-{(2S)-2-Amino-3-cyclohexylpropanoyl}-DArginyl-OH] (H-FKV[dCha][Cha][dR]-OH)", "values": [
      {"measurement": "Ki", "value": 53, "unit": "nM"}
    ]},
    {"smiles": "CN[C@@H](Cc1ccccc1)C(=O)N[C@@H](CCCCN)C(=O)N1CCC[C@H]1C(=O)N[C@H](CC1CCCCC1)C(=O)N[C@@H](Cc1ccccc1)C(=O)N[C@@H](C(=O)O)c1ccccc1", "note": "[Example 367, (N-Methyl)Phenylalanyl-Lysyl-Prolyl-{(2R)-2-Amino-3-cyclehexylpropanoyl}-Phenylalanyl-{(R)-Phenylglycinyl}-OH] (H-[NMeF]KP[dCha]F[dPhg]-OH)", "values": [
      {"measurement": "Ki", "value": 1900, "unit": "nM"}
    ]},
    {"smiles": "C[C@H](NC(=O)[C@H](CCCCN)NC(=O)[C@@H](N)Cc1ccccc1)C(=O)N[C@H](CC1CCCCC1)C(=O)N[C@@H](CC1CCCCC1)C(=O)N[C@H](CCCNC(=N)N)C(=O)O", "note": "[Example 370, H-Phenylalanyl-Lysyl-Alanyl-{(2R)-2-Amino-3-cyclohexylpropanoyl}-{(2S)-2-Amino-3-cyclohexylpropanoyl}-DArginyl-OH] (H-FKA[dCha][Cha][dR]-OH)", "values": [
      {"measurement": "Ki", "value": 85, "unit": "nM"}
    ]},
    {"smiles": "CCCC[C@@H](NC(=O)[C@H](CC(C)C)NC(=O)[C@H](CC1CCCCC1)NC(=O)[C@H](CC1CCCCC1)NC(=O)[C@H](C)NC(=O)[C@H](CCCCN)NC(=O)[C@@H](N)Cc1ccccc1)C(=O)O", "note": "[Example 390, H-Phenylalanyl-Lysyl-Alanyl-{(2S)-2-Amino-3-cyclohexylpropanoyl}-{(2S)-2-Amino-3-cyclohexylpropanoyl}-Leucyl-DNorleucyl-OH] (H-FKA[Cha][Cha]L[dNle]-OH)", "values": [
      {"measurement": "Ki", "value": 4000, "unit": "nM"}
    ]}
  ]
}
